Results from article PMC6835155, “Lessons from LIMK1 enzymology and their impact on inhibitor design” (Biochemical Journal, 2019).
Like-named read-outs stand apart in the source and are kept apart here.

What was measured:
[1] = target: T1, LIMK2KD (Homo sapiens, UniProt P53671); test: Differential (dynamic) scanning fluorimetry (DSF) assay, LIMK2KD; type: binding
T1 construct: The cDNA coding for LIMK2 residues 330 to 632 was PCR amplified; His6 (N, cleaved yes); made in house; host or cells: baculovirus; Sf9 for virus, TriEx insect cells for expression

[2] = target: T2, LIMK1KD (Homo sapiens, UniProt P53667); test: Differential (dynamic) scanning fluorimetry (DSF) assay, LIMK1KD; type: binding; conditions: for ΔTm at 10 µM: read-out: TM Shift LIMK1 (K)
T2 construct: His6 (N, cleaved yes); made in house; host or cells: baculovirus; Sf9 for virus, TriEx insect cells for expression

[3] = LIMK2KD, compound 10 µM, single shot
[4] = 2 µM LIMK1KD, compound 10 µM, single shot
[5] = LIMK2KD, compound 10 µM, single shot, 10 µM
[6] = LIMK2KD, compound 10 µM, single shot, read-out: TM Shift LIMK2 (K)

T1 sequence (P53671 330-632): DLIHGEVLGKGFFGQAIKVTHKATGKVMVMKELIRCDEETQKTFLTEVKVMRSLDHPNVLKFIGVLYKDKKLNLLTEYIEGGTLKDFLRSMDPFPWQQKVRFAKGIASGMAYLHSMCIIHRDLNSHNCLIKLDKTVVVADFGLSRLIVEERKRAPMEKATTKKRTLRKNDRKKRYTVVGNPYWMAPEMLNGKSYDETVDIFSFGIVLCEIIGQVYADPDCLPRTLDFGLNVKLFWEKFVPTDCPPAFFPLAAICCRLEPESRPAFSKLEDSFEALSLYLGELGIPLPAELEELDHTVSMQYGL
T2 sequence (P53667 330-637): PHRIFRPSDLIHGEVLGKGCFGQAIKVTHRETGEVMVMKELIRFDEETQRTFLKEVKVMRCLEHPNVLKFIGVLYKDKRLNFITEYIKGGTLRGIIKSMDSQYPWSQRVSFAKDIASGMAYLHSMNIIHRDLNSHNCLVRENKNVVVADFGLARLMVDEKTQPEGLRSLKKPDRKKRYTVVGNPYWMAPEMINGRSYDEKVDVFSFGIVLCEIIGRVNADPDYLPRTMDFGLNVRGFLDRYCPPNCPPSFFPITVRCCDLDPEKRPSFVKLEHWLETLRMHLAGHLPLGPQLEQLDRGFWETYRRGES

Row | Compound | TM Shift LIMK2 (K) [1, 3] [K] | TM Shift LIMK1 (K) [2, 4] [K] | ΔTm at 10 µM [1, 6] [°C] | ΔTm at 10 µM [2, 4] [°C] | other results
1 | Cc1ccc(C(=O)Nc2cccc(C(F)(F)F)c2)cc1Nc1nc(-c2cccnc2)nc2c1cnn2C [NVP-BHG712] | 1.6 | -0.2 | – | – | –
2 | Nc1cc(C(F)(F)F)c(-c2cc(N3CCOCC3)nc(N3CCOCC3)n2)cn1 [Buparlisib] | – | 0.6 | – | – | TM Shift LIMK2 (K) [1, 5]: 0.0 K; TM Shift LIMK2 (K) ([1]; LIMK2KD, compound 10 µM, single shot, listed as BKM120 (NVP-BKM120, Buparlisib), 10 µM): 0.7 K; TM Shift LIMK1 (K) ([2]; 2 µM LIMK1KD, compound 10 µM, single shot, listed as BKM120 (NVP-BKM120, Buparlisib)): -1.9 K
3 | CNC(=O)CN1CCC(Oc2cc3c(Nc4cccc(Cl)c4F)ncnc3cc2OC)CC1 [AZD8931 (Sapitinib), Sapitinib] | – | – | 0.6 | 0.9 | –
4 | COc1cc(Nc2ncc(F)c(Nc3ccc4c(n3)N(COP(=O)(O)O)C(=O)C(C)(C)O4)n2)cc(OC)c1OC [Fostamatinib (R788), Fostamatinib] | – | – | 0.5 | 1 | –
5 | CCO.N#CC(=C(/N)Sc1ccccc1N)/C(C#N)=C(\N)Sc1ccccc1N [U0126-EtOH] | 2.4 | -1.1 | – | – | –
6 | Cc1ccc(NC(=O)c2cccc(N(C)C)c2)cc1NC(=O)c1ccc(O)cc1 [ZM 336372] | 0.2 | 0.7 | – | – | –
7 | O=C1Nc2ccc(I)cc2/C1=C/c1cc(Br)c(O)c(Br)c1 [GW5074] | 5.6 | 0.0 | – | – | –
8 | Cn1cc(C2=C(c3cn(C4CCN(Cc5ccccn5)CC4)c4ccccc34)C(=O)NC2=O)c2ccccc21 [Enzastaurin (LY317615), Enzastaurin] | – | – | 1.6 | 1 | –
9 | Cc1cn(-c2cc(NC(=O)c3ccc(C)c(Nc4nccc(-c5cccnc5)n4)c3)cc(C(F)(F)F)c2)cn1 [Nilotinib (AMN-107), Nilotinib] | – | – | 0.4 | 0.5 | –
10 | CC(C)(C)Cn1c(N)nc2ccc(-c3[nH]c(C(C)(C)C)nc3-c3ccc(F)cc3)nc21 [Ralimetinib] | – | – | 3.1 | 3.2 | –
11 | C=CC(=O)Nc1cccc(Nc2nc(Nc3ccc(N4CCN(C(C)=O)CC4)cc3OC)ncc2C(F)(F)F)c1 [CO-1686 (AVL-301)] | – | – | -0.4 | 0.4 | –
12 | CS(=O)(=O)c1ccc(-c2cnc(N)c(C(=O)Nc3ccccc3)n2)cc1 [VE-821] | – | – | 1.5 | 0.8 | –
13 | COc1cc(Nc2ncc3c(n2)-c2ccc(Cl)cc2C(c2c(F)cccc2OC)=NC3)ccc1C(=O)O [Alisertib (MLN8237), Alisertib] | – | – | 1.8 | -0.3 | –
14 | COc1cc(Nc2c(C#N)cnc3cc(OCCCN4CCN(C)CC4)c(OC)cc23)c(Cl)cc1Cl [Bosutinib (SKI-606), Bosutinib] | – | – | 1.3 | 0.1 | –
15 | AZ23 | 0.8 | 3.6 | – | – | –
16 | COc1cc2c(Nc3ccc(Br)cc3F)ncnc2cc1OCC1CCN(C)CC1 [Vandetanib (ZD6474), Vandetanib] | – | – | 0.1 | 0.1 | –
17 | O=C(NOCC1CC1)c1ccc(F)c(F)c1Nc1ccc(I)cc1Cl [PD184352 (CI-1040)] | – | – | 0.9 | 0.1 | –

Row | Compound | TM Shift LIMK2 (K) [1, 3] [K] | TM Shift LIMK1 (K) [2, 4] [K] | ΔTm at 10 µM [1, 6] [°C] | ΔTm at 10 µM [2, 4] [°C] | other results
18 | COc1cc2c(Nc3ccc(NC(=O)c4ccccc4)cc3)ncnc2cc1OCCCN1CCOCC1 [ZM 447439] | 0.8 | 0.1 | – | – | –
19 | CC(=O)Nc1nc(C)c(-c2ccc(Cl)c(S(=O)(=O)NCCO)c2)s1 [PIK-93] | – | – | – | – | TM Shift LIMK2 (K) ([1]; 10 µM): 1.7 K; TM Shift LIMK1 (K) [2]: 1.0 K
20 | CO[C@@H](C(=O)N1Cc2n[nH]c(NC(=O)c3ccc(N4CCN(C)CC4)cc3)c2C1)c1ccccc1 [Danusertib (PHA-739358), Danusertib] | – | – | 1 | 5 | –
21 | COc1ccc(Cl)c(Nc2nc3ccccc3nc2NS(=O)(=O)c2cccc(NC(=O)C(C)(C)N)c2)c1 [Pilaralisib] | – | – | 0.4 | -0.1 | –
22 | Nc1nc(N)c2nc(-c3cccc(O)c3)c(-c3cccc(O)c3)nc2n1 [TG100-115] | 2.4 | 1.3 | – | – | –
23 | O=C1Nc2cc(Br)ccc2/C1=C1/Nc2ccccc2/C1=N\O [BIO] | 2.2 | 0.2 | – | – | –
24 | O=c1[nH]c2ccc(Cl)cc2c(N[C@@H]2CN3CCC2CC3)c1-c1nc2ccccc2[nH]1 [CHIR-124] | -1.7 | 2.2 | – | – | –
25 | O=C1NC(=O)/C(=C/c2ccc(-c3ccc(F)cc3O)o2)S1 [AS-252424] | 3.0 | -0.1 | – | – | –
26 | COc1cc(OC)c(/C=C/S(=O)(=O)Cc2ccc(OC)c(NCC(=O)O)c2)c(OC)c1 [Rigosertib (ON-01910), Rigosertib] | – | – | 1.6 | 2.7 | –
27 | COC(=O)[C@]12CCC(C)(C)C[C@H]1[C@H]1C(=O)C=C3[C@@]4(C)C=C(C#N)C(=O)C(C)(C)[C@@H]4CC[C@@]3(C)[C@]1(C)CC2 [Bardoxolone Methyl] | – | – | 0.8 | -1 | –
28 | CO[C@@H]1[C@H](N(C)C(=O)c2ccccc2)C[C@H]2O[C@]1(C)n1c3ccccc3c3c4c(c5c6ccccc6n2c5c31)C(=O)NC4 [Midostaurin] | – | – | 0 | 0.1 | –
29 | CCN1CCN(c2ccc(Nc3cc(N(C)C(=O)Nc4c(Cl)c(OC)cc(OC)c4Cl)ncn3)cc2)CC1 [NVP-BGJ398] | – | 0.0 | – | – | TM Shift LIMK2 (K) [1, 5]: -0.5 K; TM Shift LIMK2 (K) ([1]; LIMK2KD, compound 10 µM, single shot, listed as BGJ398 (NVP-BGJ398), 10 µM): 0.5 K; TM Shift LIMK1 (K) ([2]; 2 µM LIMK1KD, compound 10 µM, single shot, listed as BGJ398 (NVP-BGJ398)): 0.7 K
30 | COc1ccc(F)c(F)c1C(=O)c1cnc(NC2CCN(S(C)(=O)=O)CC2)nc1N [R547] | -0.2 | 0.1 | – | – | –
31 | C[C@@H](N)[C@H]1CC[C@H](C(=O)Nc2ccncc2)CC1.Cl.Cl [Y-27632 2HCl] | 0.9 | -0.7 | – | – | –
32 | COc1cc2ncnc(Nc3ccc(F)c(Cl)c3)c2cc1OCCCN1CCOCC1 [Gefitinib (ZD1839), Gefitinib] | – | – | – | -0.6 | ΔTm at 10 µM ([1]; read-out: TM Shift LIMK2 (K), LIMK2KD, compound 10 µM, single shot): 0.5 °C
33 | O=c1c(-c2ccc(O)cc2)coc2cc(O)cc(O)c12 [Genistein] | – | – | 4 | -0.3 | –

Continued, in another order:

Row | TM Shift LIMK2 (K) [1, 3] [K] | TM Shift LIMK1 (K) [2, 4] [K] | ΔTm at 10 µM [1, 6] [°C] | ΔTm at 10 µM [2, 4] [°C] | Compound | other results
34 | – | – | 1.6 | 4 | O=C(Nc1ccc(-c2ccnc(Nc3ccc(N4CCOCC4)cc3)n2)cc1)C1CCCN1 (stereo not drawn) [XL019] | –
35 | – | 1.6 | – | – | CCc1cncnc1N1CCN(Cc2nc3ccc(C(F)(F)F)cc3[nH]2)CC1 [PF-04708671] | TM Shift LIMK2 (K) [1, 5]: 1.7 K
36 | – | – | 2.6 | 1.2 | O=C1NC(=O)/C(=C/c2ccc3nccc(-c4ccncc4)c3c2)S1 [GSK1059615] | –
37 | 0.0 | 0.1 | – | – | Cc1cc(C(C)Nc2ccccc2)c2nc(N3CCOCC3)cc(=O)n2c1 (stereo not drawn) [TGX-221] | –
38 | – | – | -1.3 | -0.5 | CCNC(=O)Nc1ccc(-c2nc3c(c(N4CCOC[C@@H]4C)n2)CCN(C2COC2)C3)cc1 [GDC-0349] | –
39 | – | 0.1 | – | – | Cc1cnc(NC(=O)Nc2cc(Br)c(C)cc2OC[C@@H]2CNCCO2)cn1 [LY2603618] | TM Shift LIMK2 (K) [1, 5]: 0.7 K
40 | – | – | 0 | -0.7 | OCCn1cc(-c2ccc3c(c2)CC/C3=N\O)c(-c2ccncc2)n1 [GDC-0879] | –
41 | -0.4 | 0.7 | – | – | Cc1nc(Nc2n[nH]c3c2CN(C(=O)N[C@H](CN(C)C)c2ccccc2)C3(C)C)c2sccc2n1 [PF-03758309] | –
42 | – | – | 0.2 | 2.2 | COc1cccc2cc(-c3nc([C@H]4CC[C@H](C(=O)O)CC4)n4ncnc(N)c34)[nH]c12 [OSI-027] | –
43 | 3.8 | 0.6 | – | – | Nc1ccc(C(=O)Nc2cccc(-c3nc(N4CCOCC4)c4oc5ncccc5c4n3)c2)cn1 [YM201636] | –
44 | 2.7 | -1.4 | – | – | Cc1c(C(=O)N2CCOc3ccc(-c4ccc(N)nc4)cc3C2)ccc(S(C)(=O)=O)c1F [XL388] | –
45 | – | – | -0.3 | 0.2 | Cc1cc(Nc2ncc(Cl)c(Nc3ccccc3S(=O)(=O)C(C)C)n2)c(OC(C)C)cc1C1CCNCC1 [LDK378] | –
46 | 3.2 | 1.3 | – | – | N#Cc1c(Oc2ccc(F)c(NC(=O)Cc3cccc(C(F)(F)F)c3)c2)ccc2nc(NC(=O)C3CC3)sc12 [TAK-632] | –
